Measurements as given in patent US10738028B2, “Spiro three-membered ring, spiro five-membered ring peptide deformylase inhibitor and use thereof in antibacteria and anti-tumor” (priority 2016, dated 2020).

Tests used:
Format in all cases: cell-based
[1] = test system: HCT-116 colorectal cancer cell line; test: CCK-8 proliferation inhibition; settings: Homo sapiens, HCT-116, 72 h, concentration of 30 μM; 72 hours; CCK-8; read-out: HCT116 inhibition rate/%
How it was run: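 2000 cells/well, McCoy's 5A + 10% newborn bovine serum; overnight attach, 37° C./5% CO2. Cpd from DMSO stock diluted in medium, 72 h. Readout: CCK-8 (1:10). Ctrl 1‰ DMSO.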

[2] = test system: Enterococcus faecium (EFM); test: MIC, two-fold agar dilution (CLSI), clinical isolates
Description: (§1) 1. The invention adopts the two-fold agar dilution method recommended by the operating procedure of antimicrobial susceptibility testing set by American Clinical and Laboratory Standards Institute (CLSI) to determine the Minimum Inhibitory Concentration (MIC) of the test samples against the tested strains.

[3] = test system: Escherichia coli (including ESBLs, non-ESBLs); test: as above
Description: as §1

[4] = test system: Enterococcus faecalis (EFA); test: as above
Description: as §1

[5] = test system: Moraxella catarrhalis (BCA); test: as above
Description: as §1

[6] = test system: methicillin-sensitive Staphylococcus aureus (MSSA); test: as above
Description: as §1

[7] = test system: methicillin-resistant Staphylococcus aureus (MRSA); test: as above
Description: as §1

[8] = test system: methicillin-resistant Staphylococcus epidermidis (MRSE); test: as above
Description: as §1

[9] = test system: methicillin-sensitive Staphylococcus epidermidis (MSSE); test: as above
Description: as §1

[10] = test system: Streptococcus pneoumoniae (SPN); test: as above
Description: as §1

O=CN(O)C[C@@H](CC1CCCC1)C(=O)N1CC2(CC2)C[C@H]1c1nc2ccccc2[nH]1 [Example 42, N—((R)-3-((S)-6-(1H-benzimidazol-2-yl)-5-azaspiro[2.4]heptane-5-yl)-2-(cyclopentylmethyl)-3-propylcarbonyl)-N-hydroxyformamide]
14%: inhibition at 30 µM [1]
1 µg/mL: Anti-bacterial activity (MIC), strain EFM 15-3 ([2]; clinical isolate EFM 15-3) | Anti-bacterial activity (MIC), strain BCA 14-1 ([5]; clinical isolate BCA 14-1) | Anti-bacterial activity (MIC), strain BCA 14-7 ([5]; clinical isolate BCA 14-7) | Anti-bacterial activity (MIC), strain BCA 14-10 ([5]; clinical isolate BCA 14-10) | Anti-bacterial activity (MIC), strain MSSA 15-5 ([6]; clinical isolate MSSA 15-5) | Anti-bacterial activity (MIC), strain MRSA 15-3 ([7]; clinical isolate MRSA 15-3) | Anti-bacterial activity (MIC), strain MRSA 15-4 ([7]; clinical isolate MRSA 15-4) | Anti-bacterial activity (MIC), strain SPN 16-2 ([10]; clinical isolate SPN 16-2)
2 µg/mL: Anti-bacterial activity (MIC), strain EFM 15-1 ([2]; clinical isolate EFM 15-1) | Anti-bacterial activity (MIC), strain EFM 15-5 ([2]; clinical isolate EFM 15-5) | Anti-bacterial activity (MIC), strain BCA 14-4 ([5]; clinical isolate BCA 14-4) | Anti-bacterial activity (MIC), strain BCA 14-5 ([5]; clinical isolate BCA 14-5) | Anti-bacterial activity (MIC), strain BCA 14-6 ([5]; clinical isolate BCA 14-6) | Anti-bacterial activity (MIC), strain MSSA 15-3 ([6]; clinical isolate MSSA 15-3) | Anti-bacterial activity (MIC), strain MSSA 15-4 ([6]; clinical isolate MSSA 15-4) | Anti-bacterial activity (MIC), strain MSSA 15-6 ([6]; clinical isolate MSSA 15-6) | Anti-bacterial activity (MIC), strain MRSA 15-1 ([7]; clinical isolate MRSA 15-1) | Anti-bacterial activity (MIC), strain MRSA 15-2 ([7]; clinical isolate MRSA 15-2) | Anti-bacterial activity (MIC), strain MRSE 15-1 ([8]; clinical isolate MRSE 15-1) | Anti-bacterial activity (MIC), strain MRSE 15-2 ([8]; clinical isolate MRSE 15-2) | Anti-bacterial activity (MIC), strain MRSE 15-3 ([8]; clinical isolate MRSE 15-3) | Anti-bacterial activity (MIC), strain MRSE 15-7 ([8]; clinical isolate MRSE 15-7) | Anti-bacterial activity (MIC), strain MSSE 15-3 ([9]; clinical isolate MSSE 15-3) | Anti-bacterial activity (MIC), strain MSSE 15-4 ([9]; clinical isolate MSSE 15-4) | Anti-bacterial activity (MIC), strain MSSE 15-5 ([9]; clinical isolate MSSE 15-5) | Anti-bacterial activity (MIC), strain MSSE 15-6 ([9]; clinical isolate MSSE 15-6)
16 µg/mL: Anti-bacterial activity (MIC), strain ECO+ 15-1 ([3]; clinical isolate ECO+ 15-1) | Anti-bacterial activity (MIC), strain ECO+ 15-4 ([3]; clinical isolate ECO+ 15-4) | Anti-bacterial activity (MIC), strain EFA 15-1 ([4]; clinical isolate EFA 15-1) | Anti-bacterial activity (MIC), strain EFA 15-2 ([4]; clinical isolate EFA 15-2) | Anti-bacterial activity (MIC), strain EFA 15-4 ([4]; clinical isolate EFA 15-4) | Anti-bacterial activity (MIC), strain EFA 15-5 ([4]; clinical isolate EFA 15-5) | Anti-bacterial activity (MIC), strain EFA 15-6 ([4]; clinical isolate EFA 15-6) | Anti-bacterial activity (MIC), strain EFA 15-9 ([4]; clinical isolate EFA 15-9) | Anti-bacterial activity (MIC), strain SPN 16-4 ([10]; clinical isolate SPN 16-4)
4 µg/mL: Anti-bacterial activity (MIC), strain EFM 15-2 ([2]; clinical isolate EFM 15-2) | Anti-bacterial activity (MIC), strain EFM 15-4 ([2]; clinical isolate EFM 15-4) | Anti-bacterial activity (MIC), strain EFM 15-6 ([2]; clinical isolate EFM 15-6) | Anti-bacterial activity (MIC), strain EFA 15-3 ([4]; clinical isolate EFA 15-3) | Anti-bacterial activity (MIC), strain BCA 14-8 ([5]; clinical isolate BCA 14-8)
32 µg/mL: Anti-bacterial activity (MIC), strain ECO+ 15-2 ([3]; clinical isolate ECO+ 15-2) | Anti-bacterial activity (MIC), strain ECO+ 15-3 ([3]; clinical isolate ECO+ 15-3) | Anti-bacterial activity (MIC), strain ECO− 15-1 ([3]; clinical isolate ECO− 15-1) | Anti-bacterial activity (MIC), strain ECO− 15-2 ([3]; clinical isolate ECO− 15-2) | Anti-bacterial activity (MIC), strain ECO− 15-3 ([3]; clinical isolate ECO− 15-3) | Anti-bacterial activity (MIC), strain ECO− 15-4 ([3]; clinical isolate ECO− 15-4)
